Structures are written as SMILES.

Chain of MAPKAPK2 (P49137 whole entry, species assumed): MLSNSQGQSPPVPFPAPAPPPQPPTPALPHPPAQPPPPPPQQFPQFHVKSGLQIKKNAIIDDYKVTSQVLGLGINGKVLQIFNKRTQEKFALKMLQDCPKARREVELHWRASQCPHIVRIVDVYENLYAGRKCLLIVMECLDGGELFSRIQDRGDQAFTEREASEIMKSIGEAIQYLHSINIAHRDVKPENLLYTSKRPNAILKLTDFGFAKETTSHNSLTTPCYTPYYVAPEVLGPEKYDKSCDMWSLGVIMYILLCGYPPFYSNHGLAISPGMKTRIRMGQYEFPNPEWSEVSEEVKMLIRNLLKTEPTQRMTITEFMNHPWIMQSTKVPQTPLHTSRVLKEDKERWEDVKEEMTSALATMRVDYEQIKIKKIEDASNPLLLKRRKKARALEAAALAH

In the test the target is MAPKAPK2 (Homo sapiens, UniProt P49137). As to the kind of experiment: MK2 Enzymatic Assay. The class given is biochemical. The settings on record: 0.5 nM MAPKAPK2, 3 μM ATP, 2 μM Ser/Thr4 peptide, 23° C., values given as concentration bins. How it is done:
Briefly, 5 μL of 2× (4 μM) 100% phosphorylation peptide was delivered into the control wells of a 384-well assay plate. 5 μL of 2× (1 nM) MAPKAPK2 and 2× peptide (4 μM) mixture in assay buffer was dispensed to remaining columns of assay plate using Eppendorf electronic multiple channel pipette. The assay plate was incubated for 20 minutes. 5 μL of 2× ATP (6 μM) in assay buffer was dispensed to each well and then the assay plate was lightly centrifuged. The assay plate was incubated for an additional 120 minutes.
5 μL of development reagent A was dispensed to all wells using Eppendorf electronic multiple channel pipette. After incubating the development reaction for 120 min, plates were read on a Perkin Elmer Envision instrument.
Percent phosphorylation was calculated using the following formula:
[formula] Where • C100%=Average Coumarin emission signal of the 100% Phos. Control • C0%=Average Coumarin emission signal of the 0% Phos. Control • F100%=Average Fluorescein emission signal of the 100% Phos. Control • F0%=Average Flurescein emission signal of the 0% Phos. Control
What is called IC50 is the concentration that inhibits the measured activity by half. Read a high IC50 as lower potency. Compound `CN[C@H]1CCN(c2ccc3c(c2)Cn2c(cc(-c4ccc(C#N)cc4)c2Cl)-c2nncn2-3)C1` [Compound 167, (S)-4-(11-chloro-7-(3-(methylamino)pyrrolidin-1-yl)-9H-benzo[e]pyrrolo[1,2-a][1,2,4]tri-azolo[3,4-c][1,4]diazepin-12-yl)benzonitrile] showed an IC50 of 0.05 to 0.1 µM.

In turn, `CN(C)[C@@H]1CN(c2ccc3c(c2)Cn2cc(-c4ccc(F)cc4)cc2-c2ncnn2-3)C[C@H]1O` [Compound 417, (3R,4R)-4-(dimethylamino)-1-(12-(4-fluorophenyl)-9H-benzo[e]pyrrolo[1,2-a][1,2,4]triazolo[5,1-c][1,4]diazepin-7-yl)pyrrolidin-3-ol] showed an IC50 of 0.05 to 0.1 µM.

With `CN(C)C[C@@H]1CN(c2ccc3c(c2)Cn2cc(-c4ccc(C#N)cc4)cc2-c2nncn2-3)C[C@@H]1O` [Compound 82, 4-(7-((3R,4R)-3-((dimethylamino)methyl)-4-hydroxypyrrolidin-1-yl)-9H-benzo[e]pyrrolo[1,2-a][1,2,4]triazolo[3,4-c][1,4]diazepin-12-yl)benzonitrile], the half-maximal inhibitory concentration (IC50) is less than 0.05 µM.

Turning to `CNC[C@@H]1CN(c2ccc3c(c2)Cn2cc(-c4ccc(F)cc4)cc2-c2nccn2-3)C[C@@H]1F` [Compound 474, 1-((3R,4R)-4-fluoro-1-(12-(4-fluorophenyl)-9H-benzo[e]imidazo[2,1-c]pyrrolo[1,2-a][1,4]diazepin-7-yl)pyrrolidin-3-yl)-N-methylmethanamine], the half-maximal inhibitory concentration (IC50) was less than 0.05 µM.

Regarding `CN(C)[C@H]1CCN(c2ccc3c(c2)Cn2cc(-c4ccc(F)cc4)cc2-c2nnnn2-3)C1` [Compound 407, (S)-1-(12-(4-fluorophenyl)-9H-benzo[e]pyrrolo[1,2-a]tetrazolo[5,1-c][1,4]diazepin-7-yl)-N,N-dimethylpyrrolidin-3-amine], the concentration for half-maximal inhibition (IC50) was in the range of 0.05 to 0.1 µM.

In turn, `CN(C)[C@@H]1CCN(c2ccc3c(c2)Cn2cc(-c4ccc(C#N)cc4)cc2-c2ncc(CN)n2-3)C1` [Compound 277, 4-(3-(aminomethyl)-7-((R)-3-(dimethylamino)pyrrolidin-1-yl)-9H-benzo[e]imidazo[2,1-c]pyrrolo[1,2-a][1,4]diazepin-12-yl)benzonitrile] came in with an IC50 of 0.05 to 0.1 µM.

Turning to `CNC[C@@H]1CN(c2ccc3c(c2)Cn2cc(-c4ccc(F)cc4)cc2-c2nccn2-3)C[C@@H]1O` [Compound 483, (3R,4R)-1-(12-(4-fluorophenyl)-9H-benzo[e]imidazo[2,1-c]pyrrolo[1,2-a][1,4]diazepin-7-yl)-4-((methylamino)methyl)pyrrolidin-3-ol], the IC50 is less than 0.05 µM.

In turn, `CNCc1cnc2n1-c1ccc(N3CC[C@@H](N(C)C)C3)cc1Cn1cc(-c3ccc(C#N)cc3)cc1-2` [Compound 276, 4-(7-((R)-3-(dimethylamino)pyrrolidin-1-yl)-3-((methylamino)methyl)-9H-benzo[e]imidazo[2,1-c]pyrrolo[1,2-a][1,4]diazepin-12-yl)benzonitrile] showed a concentration for half-maximal inhibition (IC50) of less than 0.05 µM.

Compound `C[C@H](CO)NC[C@H]1CCN(c2ccc3c(c2)Cn2cc(-c4ccc(C#N)cc4)cc2-c2nccn2-3)C1` [Compound 136, 4-(7-((R)-3-((((R)-1-hydroxypropan-2-yl)amino)methyl)pyrrolidin-1-yl)-9H-benzo[e]imidazo[2,1-c]pyrrolo[1,2-a][1,4]diazepin-12-yl)benzonitrile] had an IC50 of less than 0.05 µM.

For `O=C1N[C@@H]2CN(c3ccc4c(c3)Cn3cc(-c5ccc(F)cc5)cc3-c3nccn3-4)C[C@@H]2O1` [Compound 481, (3aR,6aS)-5-(12-(4-fluorophenyl)-9H-benzo[e]imidazo[2,1-c]pyrrolo[1,2-a][1,4]diazepin-7-yl)hexahydro-2H-pyrrolo[3,4-d]oxazol-2-one], the IC50 is 0.2 to 1 µM.

Turning to `CN(C)C[C@H]1CCN(c2ccc3c(c2)Cn2cc(-c4ccc(C#N)cc4)cc2-c2ncnn2-3)C1` [Compound 255, (R)-4-(7-(3-((dimethylamino)methyl)pyrrolidin-1-yl)-9H-benzo[e]pyrrolo[1,2-a][1,2,4]riazolo[5,1-c][1,4]diazepin-12-yl)benzonitrile], the IC50 is less than 0.05 µM.

Consider `CNCC1CN(c2ccc3c(c2)Cn2cc(-c4ccc(F)cc4)cc2-c2nccn2-3)C1` [Compound 341, 1-(1-(12-(4-fluorophenyl)-9H-benzo[e]imidazo[2,1-c]pyrrolo[1,2-a][1,4]diazepin-7-yl)azetidin-3-yl)-N-methylmethanamine], for which the half-maximal inhibitory concentration (IC50) was less than 0.05 µM.

In turn, `N#Cc1ccc(-c2cc3n(c2)Cc2cc(N4CC[C@H]5NCC[C@@H]54)ccc2-n2nnnc2-3)cc1` (racemic) [Compound 232, 4-(7-(trans-hexahydropyrrolo[3,2-b]pyrrol-1(2H)-yl)-9H-benzo[e]pyrrolo[1,2-a]tetrazolo[5,1-c][1,4]diazepin-12-yl)benzonitrile] yielded a 50% inhibitory concentration (IC50) of less than 0.05 µM.

The compound `Cc1nnc2n1-c1ccc(N3CC[C@@H](CN(C)C)C3)cc1Cn1cc(-c3ccc(C#N)cc3)cc1-2` [Compound 228, 4-(7-((S)-3-((dimethylamino)methyl)pyrrolidin-1-yl)-3-methyl-9H-benzo[e]pyrrolo[1,2-a] [1,2,4]triazolo[3,4-c][1,4]diazepin-12-yl)benzonitrile] registered an IC50 of 0.05 to 0.1 µM.

For the compound `CN[C@@H]1CN(c2ccc3c(c2)Cn2cc(-c4ccc(F)cc4)cc2-c2ncnn2-3)C[C@H]1CO` (relative stereo) [Compound 505, (Trans-1-(12-(4-fluorophenyl)-9H-benzo[e]pyrrolo[1,2-a][1,2,4]triazolo[5,1-c][1,4]diazepin-7-yl)-4-(methylamino)pyrrolidin-3-yl)methanol], the half-maximal inhibitory concentration (IC50) lay within 0.05 to 0.1 µM.

`CN(C)C[C@H]1CN(c2ccc3c(c2)Cn2cc(-c4ccc(F)cc4)cc2-c2nccn2-3)C[C@@H]1O` [Compound 356, (3R,4S)-4-((dimethylamino)methyl)-1-(12-(4-fluorophenyl)-9H-benzo[e]imidazo[2,1-c]pyrrolo[1,2-a][1,4]diazepin-7-yl)pyrrolidin-3-ol] gave an IC50 of less than 0.05 µM.

For the compound `CN(C)C[C@@H]1CCN(c2ccc3c(c2)Cn2cc(-c4ccc(F)cc4)cc2-c2nnnn2-3)C1` [Compound 393, (S)-1-(1-(12-(4-fluorophenyl)-9H-benzo[e]pyrrolo[1,2-a]tetrazolo[5,1-c][1,4]diazepin-7-yl)pyrrolidin-3-yl)-N,N-dimethylmethanamine], the IC50 is less than 0.05 µM.

`CN[C@@H]1CN(c2ccc3c(c2)Cn2cc(-c4ccc(F)cc4)cc2-c2nccn2-3)C[C@H]1CO` (relative stereo) [Compound 491, ((Trans)-1-(12-(4-fluorophenyl)-9H-benzo[e]imidazo[2,1-c]pyrrolo[1,2-a][1,4]diazepin-7-yl)-4-(methylamino)pyrrolidin-3-yl)methanol] came in with an IC50 of less than 0.05 µM.

As for `CN1CC2(CCN(c3ccc4c(c3)Cn3cc(-c5ccc(F)cc5)cc3-c3nncn3-4)C2)C1` [Compound 332, 12-(4-fluorophenyl)-7-(2-methyl-2,6-diazaspiro[3.4]octan-6-yl)-9H-benzo[e]pyrrolo[1,2-a] [1,2,4]triazolo[3,4-c][1,4]diazepine], the IC50 is less than 0.05 µM.

In turn, `CN(C)C[C@H]1CN(c2ccc3c(c2)Cn2cc(-c4ccc(F)cc4)cc2-c2nccn2-3)C[C@H]1O` [Compound 349, (3S,4S)-4-((dimethylamino)methyl)-1-(12-(4-fluorophenyl)-9H-benzo[e]imidazo[2,1-c]pyrrolo[1,2-a][1,4]diazepin-7-yl)pyrrolidin-3-ol] gave an IC50 of less than 0.05 µM.

With `NC[C@H]1CN(c2ccc3c(c2)Cn2cc(-c4ccc(F)cc4)cc2-c2nccn2-3)C[C@@H]1O` [Compound 365, (3R,4S)-4-(aminomethyl)-1-(12-(4-fluorophenyl)-9H-benzo[e]imidazo[2,1-c]pyrrolo[1,2-a] [1,4]diazepin-7-yl)pyrrolidin-3-ol], the half-inhibitory concentration (IC50) fell in the range of 0.05 to 0.1 µM.

`N#Cc1ccc(-c2cc3n(c2)Cc2cc(N4CC5(CCNC5)C4)ccc2-n2ncnc2-3)cc1` [Compound 258, 4-(7-(2,6-diazaspiro[3.4]octan-2-yl)-9H-benzo[e]pyrrolo[1,2-a][1,2,4]triazolo[5,1-c][1,4]diazepin-12-yl)benzonitrile] registered a concentration for half-maximal inhibition (IC50) of 0.05 to 0.1 µM.

`CNC[C@H]1CN(c2ccc3c(c2)Cn2cc(-c4ccc(F)cc4)cc2-c2ncnn2-3)C[C@H]1F` [Compound 497, 1-((3S,4S)-4-fluoro-1-(12-(4-fluorophenyl)-9H-benzo[e]pyrrolo[1,2-a][1,2,4]triazolo[5,1-c] [1,4]diazepin-7-yl)pyrrolidin-3-yl)-N-methylmethanamine]: the IC50 is less than 0.05 µM.

In turn, `CN(C)[C@@H]1CN(c2ccc3c(n2)Cn2cc(-c4ccc(C#N)cc4)cc2-c2nccn2-3)C[C@H]1O` [Compound 300, 4-(7-((3R,4R)-3-(dimethylamino)-4-hydroxypyrrolidin-1-yl)-9H-imidazo[2,1-c]pyrido[3,2-e]pyrrolo[1,2-a][1,4]diazepin-12-yl)benzonitrile] yielded a 50% inhibitory concentration (IC50) of less than 0.05 µM.

On to `C[C@@H](CO)NC[C@@H]1CCN(c2ccc3c(c2)Cn2cc(-c4ccc(C#N)cc4)cc2-c2nncn2-3)C1` [Compound 86, 4-(7-((S)-3-((((S)-1-hydroxypropan-2-yl)amino)methyl)pyrrolidin-1-yl)-9H-benzo[e]pyrrolo[1,2-a][1,2,4]triazolo[3,4-c][1,4]diazepin-12-yl)benzonitrile], for which the concentration for half-maximal inhibition (IC50) is less than 0.05 µM.

`N#Cc1ccc(-c2cc3n(c2)Cc2cc(N4CCNCC4)ccc2-n2cnnc2-3)cc1` [Compound 1, 4-(7-(piperazin-1-yl)-9H-benzo[e]pyrrolo[1,2-a][1,2,4]triazolo[3,4-c][1,4]diazepin-12-yl)benzonitrile] came in with an IC50 of 0.1 to 0.2 µM.

Values taken from US10562909B2, “Fused quadracyclic compounds, compositions and uses thereof” (Tabomedex Biosciences, LLC, priority 2016, dated 2020).
